In patent US7414066B2, “Amide compounds and medications containing the same technical field” (Kowa Company Ltd., priority 1999, dated 2008) one finds melting point data, which are given here for 27 molecules.

`CSc1cc(C)nc(SC)c1NC(=O)CCCCCCCSc1nc2ccccc2[nH]1` [Compound No. 807, 8-(benzimidazol-2-ylthio)-N-[2,4-bis(methylthio)-6-methyl-3-pyridyl]octanamide] had a melting point of 186 to 187 °C.

In turn, `Cc1cc(SC(C)C)c(NC(=O)CCCSc2nc3cccc(C(F)(F)F)c3o2)c(SC(C)C)n1` [Compound No. 1289, 4-(7-trifluoromethylbenzoxazol-2-ylthio)-N-[2,4-bis(isopropylthio)-6-methyl-3-pyridyl]butanamide] displayed a melting point of 135 to 136 °C.

In turn, `CSc1cc(C)nc(SC)c1NC(=O)CCCCCSc1nc2ccccc2s1` [compound 795, 6-(benzothiazol-2-ylthio)-N-[2,4-bis(methylthio)-6-methyl-3-pyridyl]hexanamide] registered a melting point of 123 to 125 °C.

`Cc1cc(SC(C)C)c(NC(=O)CCCCCCSc2nc3ccccc3s2)c(SC(C)C)n1` [Compound No. 856, 7-(benzothiazol-2-ylthio)-N-[2,4-bis(isopropylthio)-6-methyl-3-pyridyl]heptanamide] gave a melting point of 74 to 76 °C.

`CSc1cc(C)nc(SC)c1NC(=O)CSc1nc2ccccc2o1` [compound 781, 2-(benzoxazol-2-ylthio)-N-[2,4-bis(methylthio)-6-methyl-3-pyridyl]acetamide] yielded a melting point of 203 to 205 °C.

`CSc1cc(C)nc(SC)c1NC(=O)CCCCCCCCSc1nc2ccccc2o1` [compound 788, 9-(benzoxazol-2-ylthio)-N-[2,4-bis(methylthio)-6-methyl-3-pyridyl]nonanamide] displayed a melting point of 123 to 124 °C.

As to `Cc1cc(SC(C)C)c(NC(=O)CCCCCSc2nc3c(C)c(Cl)cc(C(C)C)c3o2)c(SC(C)C)n1` [Compound No. 1301, 6-(5-chloro-7-isopropyl-4-methylbenzoxazol-2-ylthio)-N-[2,4-bis(isopropylthio)-6-methyl-3-pyridyl]hexanamide], the melting point was 99 to 101 °C.

For the molecule `CSc1cc(C)nc(SC)c1NC(=O)CCCCSc1nc2ccccc2[nH]1` [Compound No. 804, 5-(benzimidazol-2-ylthio)-N-[2,4-bis(methylthio)-6-methyl-3-pyridyl]pentanamide], the melting point was in the range of 176 to 177 °C.

As to `CSc1nc(C)ccc1NC(=O)CSc1nc2ccccc2s1` [Compound No. 461, 2-(benzothiazol-2-ylthio)-N-(6-methyl-2-methylthio-3-pyridyl)acetamide], the melting point lay in the range of 175 to 176 °C.

`CSc1nc(C)ccc1NC(=O)CCCCCCCCSc1nc2ccccc2s1` [compound 468, 9-(benzothiazol-2-ylthio)-N-(6-methyl-2-methylthio-3-pyridyl)nonanamide]: the melting point was 104 to 105 °C.

The molecule `CSc1nccc(C)c1NC(=O)CCCCCCCCSc1nc2ccccc2o1` [compound 158, 9-(benzoxazol-2-ylthio)-N-(4-methyl-2-methylthio-3-pyridyl)nonanamide] had a melting point of 91 to 92 °C.

`CCSc1cc(C)nc(SCC)c1NC(=O)CCCCCSc1nc2ccccc2s1` [compound 825, 6-(benzothiazol-2-ylthio)-N-[2,4-bis(ethylthio)-6-methyl-3-pyridyl]hexanamide] gave a melting point of 81 to 83 °C.

Consider `CSc1nc(C)ccc1NC(=O)CCCCCSc1nc2ccccc2s1` [compound 465, 6-(benzothiazol-2-ylthio)-N-(6-methyl-2-methylthio-3-pyridyl)hexanamide], for which the melting point lay within 122 to 123 °C.

`CSc1cc(C)nc(SC)c1NC(=O)CCCCSc1nc2ccccc2o1` [Compound No. 784, 5-(benzoxazol-2-ylthio)-N-(2,4-bis(methylthio)-6-methyl-3-pyridyl)pentanamide]: the melting point lay within 147 to 150 °C.

In turn, `CSc1cc(C)nc(SC)c1NC(=O)CCCCCCCSc1nc2ccccc2s1` [Compound No. 797, 8-(benzthiazol-2-ylthio)-N-[2,4-bis(methylthio)-6-methyl-3-pyridyl)octanamide] registered a melting point of 104 to 108 °C.

The molecule `CSc1cc(C)nc(SC)c1NC(=O)CCCCSc1nc2cccc(C(F)(F)F)c2o1` [Compound No. 1250, 5-(7-trifluoromethylbenzoxazol-2-ylthio)-N-[2,4-bis(methylthio)-6-methyl-3-pyridyl]pentanamide] registered a melting point of 179 to 180 °C.

Regarding `CSc1cc(C)nc(SC)c1NC(=O)CCCCSc1nc2c(C)c(Cl)cc(C(C)C)c2o1` [Compound No. 1260, 5-(5-chloro-7-isopropyl-4-methylbenzoxazol-2-ylthio)-N-[2,4-bis(methylthio)-6-methyl-3-pyridyl]pentanamide], the melting point was 155 to 156 °C.

In turn, `CSc1ncccc1NC(=O)CCCCCSc1nc2ccccc2[nH]1` [compound 25, 6-(benzimidazol-2-ylthio)-N-(2-methylthio-3-pyridyl)hexanamide] registered a melting point of 121 to 123 °C.

On to `Cc1cc(SC(C)C)c(NC(=O)CCCCCCSc2nc3c(C)c(Cl)cc(C(C)C)c3o2)c(SC(C)C)n1` [Compound No. 1302, 7-(5-chloro-7-isopropyl-4-methylbenzoxazol-2-ylthio)-N-[2,4-bis(isopropylthio)-6-methyl-3-pyridyl]heptanamide], for which the melting point was in the range of 91 to 93 °C.

`CCSc1cc(C)nc(SCC)c1NC(=O)CCCCSc1nc2ccccc2[nH]1` [Compound No. 834, 5-(benzimidazol-2-ylthio)-N-[2,4-bis(ethylthio)-6-methyl-3-pyridyl]pentanamide] had a melting point of 163 to 165 °C.

For the molecule `CSc1cc(C)nc(SC)c1NC(=O)CCCSc1nc2ccccc2o1` [compound 783, 4-(benzoxazol-2-ylthio)-N-[2,4-bis(methylthio)-6-methyl-3-pyridyl]butanamide], the melting point lay in the range of 149 to 150 °C.

Regarding `CSc1nc(C)ccc1NC(=O)CCCCCCCCSc1nc2ccccc2o1` [compound 458, 9-(benzoxazol-2-ylthio)-N-(6-methyl-2-methylthio-3-pyridyl)nonanamide], the melting point lay within 99 to 100 °C.

As for `CCSc1cc(C)nc(SCC)c1NC(=O)CSc1nc2ccccc2[nH]1` [compound 831, 2-(benzimidazol-2-ylthio)-N-[2,4-bis(ethylthio)-6-methyl-3-pyridyl]acetamide], the melting point fell in the range of 182 to 183 °C.

The molecule `CSc1cc(C)nc(SC)c1NC(=O)CCCCCCSc1nc2c(C)c(Cl)cc(C(C)C)c2o1` [Compound No. 1262, 7-(5-chloro-7-isopropyl-4-methylbenzoxazol-2-ylthio)-N-[2,4-bis(methylthio)-6-methyl-3-pyridyl]heptanamide] showed a melting point of 129 to 131 °C.

Turning to `CCSc1cc(C)nc(SCC)c1NC(=O)CCCCCCCSc1nc2ccccc2o1` [Compound No. 817, 8-(benzoxazol-2-ylthio)-N-[2,4-bis(ethylthio)-6-methyl-3-pyridyl]octanamide], the melting point lay in the range of 82 to 84 °C.

For the molecule `Cc1cc(SC(C)C)c(NC(=O)CCCCSc2nc3ccccc3o2)c(SC(C)C)n1` [Compound No. 844, 5-(benzoxazol-2-ylthio)-N-[2,4-bis(isopropylthio)-6-methyl-3-pyridyl]pentanamide], the melting point lay within 129 to 130 °C.

Take `CCSc1cc(C)nc(SCC)c1NC(=O)CCCCCCSc1nc2ccccc2[nH]1` [Compound No. 836, 7-(benzimidazol-2-ylthio)-N-[2,4-bis(ethylthio)-6-methyl-3-pyridyl]heptanamide]: the melting point is 151 to 156 °C.

One may read the melting point as the temperature of the solid-liquid transition.
